Test results: patent publication US20100048676A1, “Non-androgen dependent roles for androgen receptor in liver cancer” (University of Rochester, priority 2008, published 2010)
Where two headings read alike, the source gives them in different places.

Key:
SKAR7 cells = assay: ASC-J9 effect on SKAR7 cell growth (MTT assay); assay type: cell-based, human; settings: 5 μM ASC-J9, in the presence of 10 nM DHT
Description: (§1) FIG. 6. Targeting AR as therapeutic strategy. (A) Establishment of AR siRNA stable transfectants of human SKAR3 cells. Scrambled siRNA (SKAR3-sc, lane 3) and different siRNA targeting AR (SKAR3-si1; SKAR3-si2; SKAR3-si3) stable transfectants derived from SKAR3 cells. LNCaP and SK-Hep1 cells served as positive and negative controls of AR expression, respectively. (B) AR transactivation activity was used to examine the knockdown efficiency of AR siRNA in the SKAR3 cells. The SKAR3-si1 cells were used to compare with SKAR3-sc cells and treated with EtOH and 1 nM DHT for 24 hrs after ARE(4)-luciferase transfection. The readings were normalized with the read out of pRL-TK cotransfection and pooled three individual experiments. (C) AR siRNA effect on SKAR3 cell growth. SKAR3-sc and SKAR3-si1 cells were treated with EtOH or 1 nM DHT, then observed cell growth by counting cells on different days. (D) ASC-J9 effect on SKAR3 and SKAR7 cells. Cells were plated and cultured with EtOH, 10 nM DHT and 5 μM ASC-J9 for different days and examined cell growth using MTT assay. (E) ASC-J9 effect on SKAR3 cell apoptosis and proliferation. Cells were cultured with 10 nM DHT, or 5 μM ASC-J9 for 24 hrs, then detached, stained with PI, assayed immediately by flowcytometry to observe cell apoptosis. […] Six injection sites from 3 mice were measured and pooled. […]

SKAR3 cells [1] = assay: ASC-J9 effect on SKAR3 cell growth (MTT assay); assay type: cell-based, human; settings: 5 μM ASC-J9, in the presence of 10 nM DHT
Description: as §1

SKAR3 cells [2] = assay: SKAR3 cell apoptosis, PI staining and flowcytometry; assay type: cell-based, human; settings: 5 μM ASC-J9, 24 hrs, absence or presence of 10 nM DHT
Description: as §1

[3] = system: primary tumor cells isolated from AR+/y mice livers; assay: Growth of primary cells from DEN-induced AR+/y liver tumors (MTT assay); assay type: cell-based, mouse
Protocol: (E) Cell growth analysis using MTT assay on the cells derived from AR^+/y primary liver tumor culture in 55-weeks DEN-induced AR^+/y mice. Cells within 3 passages of subculture were used, treated with ethanol (EtOH) or DHT at different concentrations (1 and 10 nM). Cell growth was monitored for a maximum of 8 days and harvested for MTT assay. Values from background readings at 650 nm were subtracted and pooled all MTT assay results from 5 independent experiments.
(F) Primary cells were derived from 55-weeks DEN-induced AR^+/y liver tumors and cultured ex vivo. Cells were treated with ASC-J9 or cotreated with 10 nM DHT for 8 days, then harvested for MTT assay. The result represents three independent experiments.
The hepatic cells were isolated from 55-weeks-old DEN-treated mice and performed primary hepatic cell culture as described previously(30). […] The cells were maintained in DMEM (Invitrogen) with 10% Fetal Calf Serum (FCS), 1% Glutamine; and 1% penicillin/streptomycin. The cell growth assays were performed according to a previous study(32) using cell counting assay or MTT (3-(4,5-Dimethylthiazol-2-yl)-2,5-diphenyltetrazolium bromide) assay(33).

[4] = injection of ASC-J9 for 15 weeks, mice; cited from earlier work
[5] = system: primary liver tumor of AR+/y mice; assay: Primary liver tumor cells inoculated subcutaneously into nude mice, tumor growth; assay type: in vivo, mouse; settings: I.P. 50 mg/kg/mice twice per week, 17 weeks
Description: as §1

SKAR3 cells [6] = settings: 1 nM DHT with H2O2 treatment, 24 hrs
Protocol: (B) SKpar and SKAR3 cells were treated with 200 μM H2O2 or 1 nM DHT for 24 hrs and measured ROS level.

SKAR3 cells [7] = settings: SKAR3-EtOH vs SKAR3-DHT, 10 nM DHT, 4 days
Protocol: (§2) FIG. 3. […] (A) Apoptotic cells in SKpar and SKAR3 cells. […] (B) Androgen and AR effect on anchorage-dependent cell growth. […] (C) Anchorage-independent cell growth of SKpar and SKAR3 cells. Cell clusters greater than 50 cells were counted as a positive clone.
(§3) The hepatic cells were isolated from 55-weeks-old DEN-treated mice and performed primary hepatic cell culture as described previously(30). The cells were plated onto 100-mm BioCoat mouse collagen I coated dishes (BD Biosciences) at a density of 5×10^5 viable cells/dish in low glucose Dulbecco's modified Eagle's medium (Invitrogen) containing 1% bovine serum albumin, 0.8 mM oleate, […] insulin (4 milliunits/ml), […] dexamethasone, 100 units of penicillin, and 1% of streptomycin/ml. Human HCC cells were obtained from Dr. Y. S. Jou in Acdemia Secienica, Taiwan published previously(31). The cells were maintained in DMEM (Invitrogen) with 10% Fetal Calf Serum (FCS), 1% Glutamine; and 1% penicillin/streptomycin.

SKpar cells = settings: SKpar-EtOH vs SKpar-DHT, 10 nM DHT, 4 days
Protocol: as §2, §3

p53 = settings: 10 nM DHT for 2, 4, and 8 hrs, time-dependent
Protocol: (A) p53 protein expression of SKpar and SKAR3 cells. We treated SKpar and SKAR3 cells with 10 nM DHT for 2, 4, and 8 hrs and measured protein abundance by immunoblotting assay using p53 specific antibody. GAPDH served as loading control.
The p53 expression was analyzed using immunoblotting assay(32) to semi-quantitate p53 protein abundance in the hepatic tumor and HCC cells. […] Protein abundance was measured by Western blotting as previously described(38) using specific antibodies against AR (Pharmingen), p53 (Cell Signaling), Gadd45, . . . , and Bcl-2 (Santa Cruz).

SKAR3 cells [8] = settings: 10 nM DHT
Description: as §2

thioreducin-2 = settings: 10 nM DHT
Protocol: (§4) FIG. 10. Examination of ROS reducing gene mRNA expression using SKpar and SKAR cells, (A, B) We plated cells and treated as indicated for 24 hrs. We examined Thioreducin-2 (A) and SOD2 (B) mRNA using Q-PCR as described in Methods.
(§5) The mRNA expression of MnSOD (SOD2), Thioreducin-2, and Gadd45 was determined using quantitative RT-PCR (Q-PCR) as previous described(37), and primer sequences are as follows.

[9] = system: superoxide dismutase 2 (SOD2); settings: 10 nM DHT
Protocol: as §4, §5

AR transactivation = assay: ARE(4)-luciferase promoter assay of AR transactivation in SKAR3 sublines; assay type: cell-based, human; settings: 1 nM DHT
Description: as §1

AR [10] = assay: AR expression in SKAR3 cells stably transfected with AR-siRNA; assay type: cell-based, human; settings: SKAR3-si1, 2 or 3 vs SKAR3-sc
Description: as §1

AR [11] = settings: MCF-7 cells, retrovirus-based vector; cited from earlier work
SKAR3 cells [12] = assay: AR siRNA effect on SKAR3 cell growth (SKAR3-sc vs SKAR3-si1); assay type: cell-based, human; settings: 1 nM DHT
Description: as §1

In the case of COc1ccc(C=CC(=O)C=C(O)C=Cc2ccc(OC)c(OC)c2)cc1OC [ASC-J9, 5-hydroxy-1,7-bis(3,4-dimethoxyphenyl)-1,4,6-heptatrien-3-one], the cell growth (SKAR7 cells) is reported as “suppression of cell growth”, the cell growth (SKAR3 cells [1]) is reported as “suppression of cell growth” and the cell apoptosis (SKAR3 cells [2]) is reported as “increased cell apoptosis”. The “primary tumor cell growth” value ([3]; 5 μM ASC-J9, absence or presence of 10 nM DHT, 8 days) was “suppressed the primary tumor cell growth”, the serum testosterone [4] was “little change in serum testosterone” and the “sexual function and fertility” value [4] was “retained normal sexual function and fertility”. For the same compound, the tumor growth [5] was “suppression of tumor growth”.
In the case of C[C@]12CCC(=O)C[C@@H]1CC[C@@H]1[C@@H]2CC[C@]2(C)[C@@H](O)CC[C@@H]12 [DHT, 5α-dihydrotestosterone], the ROS level (SKAR3 cells [6]) is reported as “further enhanced”, the cell growth (SKAR3 cells [7]) is reported as “further increased cell growth” and the cell growth (SKpar cells) is reported as “little effect”. The “cell growth (cell numbers)” value ([3]; DHT 1 and 10 nM, maximum of 8 days) was “cell numbers increased in a dose-dependent manner”, the p53 protein expression (p53) was “down-regulation of p53” and the “AR-promoted anchorage-independent cell growth” value (SKAR3 cells [8]) was “little influence”. The “thioreducin-2 mRNA expression” value (thioreducin-2; SKAR3 cells treated with H2O2) was “decreased”, the “H2O2-induced thioreducin-2 mRNA expression” value (thioreducin-2; SKpar cells) was “failed to suppress” and the “SOD2 mRNA expression” value ([9]; SKAR3 cells treated with H2O2) was “decreased”. For the same compound, the “H2O2-induced SOD2 mRNA expression” value ([9]; SKpar cells) was “failed to suppress” and the “AR transactivation induced by DHT” value (AR transactivation; SKAR3-sc cells) was “could induce substantial AR transactivation”.
In the case of “AR-siRNA: retrovirus-based vector that expresses AR-siRNA; stable SKAR3 sublines SKAR3-si1, 2 or 3 (guide GGGCCCCTGGATGGATAGCTACCTCGAGGTAGCTATCCATCCAGGGGCC)”, the AR expression (AR [10]) is listed as “substantially knocked down”, the AR knockdown (AR [11]) is listed as “effectively knocked down the AR” and the “AR-mediated transactivation under AR-siRNA” value (AR transactivation; SKAR3-si1 vs SKAR3-sc, 24 hrs) is listed as “could induce substantial AR transactivation in SKAR3-sc, but not SKAR3-si1 cells”. The DHT-induced cell growth (SKAR3 cells [12]) was “suppression of DHT-induced cell growth”.
